# Experimental data: patent US6911474B2, “Methods, compounds, and compositions for reducing body fat and modulating fatty acid metabolism” (The Regents of the University of California, priority 2001, dated 2005)
# Tests used:
# [1] = Acute food intake in 24-h food-deprived rats after i.p. administration; format: in vivo, rat
# Description: (§1) Feeding experiments. Acute experiments. Food intake was measured in 24-h food-deprived rats (Navarro et al., J. Neurochem., 67:1982-1991 (1996)), administering drugs 15 min before food presentation. Subchronic experiments. Ad libitum fed rats received vehicle injections for three days. On day four, the animals were divided in two equal groups and gave them daily injections of vehicle or OEA (5 mg per kg at 1900 h) for 7 consecutive days, while measuring body weight, food intake and water intake.
# The effects of systemically administered OEA on food intake in rats can be assessed using a 24 h fast. […] To define the selectivity of this response, various OEA analogs were evaluated for their ability to produce hypophagia.
# [2] = Food intake after intracerebroventricular administration to 24 h food-deprived rats; format: in vivo, rat
# Description: as §1
# [3] = Subchronic administration: food intake, body weight and water intake; format: in vivo, rat; conditions: 5 mg per kg, i.p., daily for seven days
# Description: as §1
# OEA was subchronically administered to rats.
# [4] = target: T1, cannabinoid receptors (rat brain membranes) (Rattus norvegicus, UniProt P20272); experiment: Displacement of cannabinoid binding to rat brain membranes in vitro
# T1 construct: from tissue; host or cells: rat brain membranes
# [5] = tested on: c-fos mRNA; experiment: c-fos mRNA in situ hybridization in brain; format: in vivo, rat; conditions: 10 mg per kg, i.p., 60 min
# Description: In situ hybridization. Rats were accustomed to the handling and injection procedure for five days. On day six, vehicle or drug OEA (10 mg per kg, i.p.), or oleic acid (10 mg per kg) was administered, and the rats killed 60 min later by decapitation under anesthesia. In situ hybridization analyses were conducted using ^35S-labeled cRNA probes for c-fos (Guthrie et al., Proc. Natl. Acad. Sci. U.S.A., 90:3329-3333 (1993)) and choline acetyl transferase (ChAT) (Lauterbom et al., Brain Res. Mol. Brain Res., 17:59-69 (1993)). Average hybridization densities were determined from at least three tissue sections per rat. Statistical significance was evaluated using one-way analysis of variance (ANOVA) followed by the Tukey-Kramer post-hoc test for paired comparisons.
# [6] = Plasma hormone levels by radioimmunoassay (HPA axis); format: in vivo, rat; conditions: Table 3
# Description: Blood chemistry. Plasma β-hydroxybutyrate and glycerol were measured using commercial kits (Sigrna, St. Louis, Mo.). Plasma prolactin, corticosterone and luteinizing hormone were quantified by radioimmunoassay (Navarro et al., Neuroreport, 8:491-496 (1997)).
# [7] = Body (rectal) temperature; format: in vivo, rat; conditions: 5 or 20 mg per kg; FIG. 4e
# Description: (§2) Other behavioral assays. The elevated plus maze test was conducted as described (Navarro et al., Neuroreport, 8:491-496 (1997)) after the administration of vehicle or OEA (20 mg per kg, i.p.). Horizontal activity in an open field (Beltramo et al., J. Neurosci., 20:3401-3407 (2000)) and pain threshold in the hot plate test (55° C.) (Beltramo et al., Science, 277:1094-1097 (1997)) were measured 15 min after injection of vehicle or OEA (20 mg per kg). Rectal temperature was measured using a digital thermometer (Martin-Calderón et al., Eur. J. Pharmacol., 344:77-86. (1998)).
# [8] = Elevated plus maze anxiety test; format: in vivo, rat; conditions: FIG. 4g
# Description: as §2
# [9] = Open field activity test; format: in vivo, rat; conditions: at a dose substantially higher than those required to produce hypophagia; FIG. 4h
# Description: as §2
# [10] = Operant responses for food; format: in vivo, rat; conditions: at a dose substantially higher than those required to produce hypophagia; FIG. 4i
# Source text: Operant responses for food. Rats were trained to lever press for food on a fixed ratio 1 (FR1) schedule of reinforcement, while food-restricted at 20 g of chow per rat per day (Rodriguez de Fonseca et al., Acta Pharmacol. Sin., 20:1109-1114 (1999)). Once stable responding was achieved, the animals were trained to acquire an FR5, time out 2-min schedule of food reinforcement and kept in limited access to food. When a stable baseline was obtained, the animals were used to test the effects of vehicle or OEA (1, 5 or 20 mg per kg) administered 15 min before lever presentation. Test duration was 60 min.
# [11] = Circulating OEA level after i.p. administration (HPLC/MS); format: in vivo; conditions: rat, plasma, ip, 1 hr after 5 mg per kg, read-out: circulating OEA levels
# Description: HPLC/MS analyses. Plasma was prepared from blood obtained by cardiac puncture (Giuffrida et al., Anal. Biochem., 280:87-93 (2000)) and CSF was collected from the cisterna magna using a 27G ½ needle (Precisionglide, USA). FAEs and NAPE were extracted from tissues with methanol/chloroform and fractionated by column chromatography (Giuffrida et al., “Lipid Second Messengers” (ed. Laychock, S. G. & Rubin, R. P.) 113-133 (CRC Press LLC, Boca Raton, Fla., 1998)). FAEs were quantified by HPLC/MS, using an isotope dilution method (Giuffrida et al., Anal. Biochem., 280:87-93 (2000)). Individual NAPE species were identified and quantified by HPLC/MS, using an external standard method (Calignano et al., Nature, 408:96-101 (2000)).
# OEA elicits hypophagia at physiologically relevant doses. […] Thus, the concentrations reached by OEA in blood during starvation can be sufficient to elicit notable behavioral responses.
# [12] = tested on: Soleus muscle; experiment: [14C]oleate oxidation to CO2 in soleus muscle; format: cell-based, rat
# [13] = tested on: Cardiomyocyte; experiment: [14C]oleate oxidation to CO2 in cardiomyocytes; format: cell-based, rat
# [14] = tested on: Astrocyte; experiment: [14C]oleate oxidation to ketone bodies in astrocytes; format: cell-based, rat
# [15] = tested on: Adipocyte; experiment: Lypolysis (glycerol release) in adipocytes; format: cell-based, rat
# T1 sequence (P20272 whole entry): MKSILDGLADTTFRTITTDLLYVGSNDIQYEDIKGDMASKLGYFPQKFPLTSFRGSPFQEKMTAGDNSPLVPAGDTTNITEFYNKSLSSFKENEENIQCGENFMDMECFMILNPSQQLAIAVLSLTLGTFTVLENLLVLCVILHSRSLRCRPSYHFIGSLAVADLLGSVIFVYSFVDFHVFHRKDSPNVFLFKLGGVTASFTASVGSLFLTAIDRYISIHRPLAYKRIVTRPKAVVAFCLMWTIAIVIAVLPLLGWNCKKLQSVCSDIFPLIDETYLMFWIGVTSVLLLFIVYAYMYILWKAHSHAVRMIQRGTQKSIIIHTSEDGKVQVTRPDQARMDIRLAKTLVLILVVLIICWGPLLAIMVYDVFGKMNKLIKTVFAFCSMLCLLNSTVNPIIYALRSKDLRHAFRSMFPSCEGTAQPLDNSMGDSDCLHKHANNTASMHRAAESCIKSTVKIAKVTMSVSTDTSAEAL
smiles,measurement,setting,value
"CCCCCCCC/C=C\CCCCCCCC(=O)NCCO [OEA, Oleoylethanolamide]",half-maximally effective dose for hypophagia,[1],5 mg per kg
same,suppression of food intake (hypophagia),"[1]; 24-h food-deprived rats, 15 min before food presentation, FIG. 4a,b",dose- and time-dependent suppression
same,effect on food intake after direct injection into the brain ventricles,[2],ineffective
same,"food intake, 60 min",[2]; 0.4 μg per animal,4.8 ± 0.4
same,"food intake, 120 min",[2]; 0.4 μg per animal,6.6 ± 0.4
same,"food intake, 240 min",[2]; 0.4 μg per animal,8.4 ± 0.4
same,"food intake, 60 min",[2]; 2 μg per animal,4.9 ± 0.4
same,"food intake, 120 min",[2]; 2 μg per animal,6.6 ± 0.6
same,"food intake, 240 min",[2]; 2 μg per animal,8.7 ± 0.5
same,"food intake, 60 min",[2]; 10 μg per animal,5.9 ± 0.2
same,"food intake, 120 min",[2]; 10 μg per animal,8.1 ± 0.4
same,"food intake, 240 min",[2]; 10 μg per animal,9.6 ± 0.7
same,cumulative food intake,[3]; FIG. 5a,"small, but significant decrease"
same,weight gain,"[3]; FIG. 5b,c",profound inhibition
same,water intake,[3]; FIG. 5d,did not affect
same,displacement of cannabinoid binding,[4],did not displace
same,c-fos expression in other brain regions,[5],not significantly affected
same,"c-fos mRNA levels in the PVN, supraoptic nucleus and NST",[5],highly localized increase
same,activity of the hypothalamus-pituitary-adrenal (HPA) axis,[6],did not alter
same,body temperature,[7],did not alter
same,anxiety-like symptoms,[8],did not produce anxiety-like symptoms
same,motor activity,[9],reduced
same,operant responses for food,[10],reduced
same,concentration at 1 hr,[11],16.1 ± 2.6 nM
same,Stimulatory effect of 10 μM OEA (%) on [14C]oleate oxidation to CO2,"[12]; Soleus muscle, 10 μM, 30 min incubation",36 ± 10%
same,fatty acid oxidation in words,[12]; primary cultures of skeletal muscle (soleus),significantly stimulates
same,Stimulatory effect of 10 μM OEA (%) on [14C]oleate oxidation to CO2,"[13]; Cardiomyocyte, 10 μM, 30 min incubation",37 ± 9%
same,fatty acid oxidation in words,[13]; primary cultures of heart cells,significantly stimulates
same,Stimulatory effect of 10 μM OEA (%) on [14C]oleate oxidation to ketone bodies,"[14]; Astrocyte, 10 μM, 30 min incubation",2 ± 6%
same,fatty acid oxidation in words,[14]; brain-derived astroglial cell cultures,no effect
same,Stimulatory effect of 10 μM OEA (%) on lypolysis (glycerol release),"[15]; Adipocyte, 10 μM, 30 min incubation",38 ± 16%
same,mobilization of triacylglycerol stores,[15]; primary white adipose tissue cells,significant mobilization
